Drawing on patent publication US5698565A, “Use of phenoxy-pyridine derivatives” (Hoffmann-La Roche Inc., priority 1995, dated 1997), this text covers Ki for 14 compounds.

pKi: −log10 of the molar value.

T1 sequence (P21917 whole entry): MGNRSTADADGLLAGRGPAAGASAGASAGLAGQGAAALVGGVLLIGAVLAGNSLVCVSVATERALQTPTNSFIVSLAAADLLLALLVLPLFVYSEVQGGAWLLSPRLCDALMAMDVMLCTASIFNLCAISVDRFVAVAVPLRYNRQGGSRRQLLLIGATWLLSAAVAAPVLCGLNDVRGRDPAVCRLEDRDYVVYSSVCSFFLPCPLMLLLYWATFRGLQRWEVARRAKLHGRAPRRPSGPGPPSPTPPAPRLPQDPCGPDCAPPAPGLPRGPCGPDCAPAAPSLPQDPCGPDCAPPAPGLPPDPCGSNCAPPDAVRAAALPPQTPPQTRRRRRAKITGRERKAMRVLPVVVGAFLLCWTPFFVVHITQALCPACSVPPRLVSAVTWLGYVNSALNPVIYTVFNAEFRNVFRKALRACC

This assay addresses T1, dopamine-D4 receptor (Homo sapiens, UniProt P21917).
T1 construct: expressed in transfected cells; host or cells: CHO (Chinese Hamster Ovary) cells, D4-CHO; crude membranes
Kind of assay: [3H]-spiperone binding at the D4 receptor, membranes of D4-CHO cells. Particulars: crude membranes from D4-CHO cells, 200 pM [3H]-spiperone, room temperature, 90 minutes. The protocol:
Compounds of formula I were characterized by their binding behavior at the D4 receptor.
CHO cells (Chinese Hamster Ovary) were used in the test. Crude membranes were isolated by ultracentrifugation from D4 -CHO and D2 -CHO cells and were stored at -80° C. After thawing and homogenizing in a buffer solution (50 mM Tris, 1 mM EDTA, 5 mM KCl, 1.5 mM CaCl2, 4 mM MgCl2, pH 7.4) they were incubated at room temperature for 90 minutes with 200 pM [3H]-spiperone and an increasing concentration (1×10^-11 M to 1×10^-4 M) of test compound. A non-specific binding was established by incubating in the presence of 1×10^-5 M (+)-butaclamol. The unbound radioligand was removed by filtration through a GF/C glass filter and the bound radioactivity was determined by scintillation in a Packard TopCount.
The calculation of the value was effected with ligand.
For `Cc1cccc(OCC(O)CN2CC=C(c3ccccc3)CC2)c1` (centres unmarked) [Compound 1, 1-(4-Phenyl-3,6-dihydro-2H-pyridin-1-yl)-3-m-tolyloxy-5-propan-2-ol], the pKi (in general, −log10 of the Ki, conventionally taken in molar units) was over 7.00.

`Cc1ccccc1OCC(O)CN1CC=C(c2ccccc2)CC1` (centres unmarked) [Compound 2, 1-(4-Phenyl-3,6-dihydro-2H-pyridin-1-yl)-3-o-tolyloxy-propan-2-ol] gave a pKi of over 7.00.

Turning to `OC(COc1cccc(C(F)(F)F)c1)CN1CC=C(c2ccccc2)CC1` (centres unmarked) [Compound 3, 1-(4-Phenyl-3,6-dihydro-2H-pyridin-1-yl)-3-(3-trifluoro-methylphenoxy)-propan-2-ol], the negative logarithm of the Ki (pKi) is over 7.00.

With `OCc1ccccc1OCC(O)CN1CC=C(c2ccccc2)CC1` (centres unmarked) [Compound 4, 1-(2-Hydroxymethyl-phenoxy)-3-(4-phenyl-3,6-dihydro-2H-pyridin-1-yl)-propan-2-ol], the pKi is over 7.00.

In turn, `COc1ccccc1OCC(O)CN1CC=C(c2ccccc2)CC1` (centres unmarked) [Compound 5, 1-(2-Methoxy-phenoxy)-3-(4-phenyl-3,6-dihydro-2H-pyridin-1-yl)-propan-2-ol] gave a pKi of over 7.00.

The compound `CC(=O)Nc1ccccc1OCC(O)CN1CC=C(c2ccccc2)CC1` (centres unmarked) [Compound 6, N-[2-[2-Hydroxy-3-(4-phenyl-3,6-dihydro-2H-pyridin-1-yl)-propoxy]-phenyl]-acetamide] gave a negative-log Ki (pKi) of over 7.00.

For the compound `CC(=O)c1ccccc1OCC(O)CN1CC=C(c2ccccc2)CC1` (centres unmarked) [Compound 7, 1-[2-[2-Hydroxy-3-(4-phenyl-3,6-dihydro-2H-pyridin-1-yl)-propoxy]-phenyl]-ethanone], the pKi was over 7.00.

In the case of `Cc1ccc(OCC(O)CN2CC=C(c3ccccc3)CC2)cc1C` (centres unmarked) [Compound 8, 1-(3,4-Dimethyl-phenoxy)-3-(4-phenyl-3,6-dihydro-2H-pyridin-1-yl)-propan-2-ol], the pKi is over 7.00.

`CC(=O)Nc1cc(Cl)ccc1OCC(O)CN1CC=C(c2ccccc2)CC1` (centres unmarked) [Compound 9, N-[5-Chloro-2-[2-hydroxy-3-(4-phenyl-3,6-dihydro-2H-pyridin-1-yl)-propoxy]-phenyl]acetamide] gave a pKi of over 7.00.

`OC(COc1cccc2ccccc12)CN1CC=C(c2ccccc2)CC1` (centres unmarked) [Compound 10, 1-(Naphthalen-1-yloxy)-3-(4-phenyl-3,6-dihydro-2H-pyridin-1-yl)-propan-2-ol] had a pKi of over 7.00.

Compound `OC(COc1cccc(C(F)(F)F)c1)CN1CC=C(c2ccc(F)cc2)CC1` (centres unmarked) [Compound 11, 1-[4-(4-Fluoro-phenyl)-3,6-dihydro-2H-pyridin-1-yl)-3-(3-trifluoromethyl-phenoxy)-propan-2-ol] had a pKi of over 7.00.

For the compound `NC(=O)c1ccccc1OCC(O)CN1CC=C(c2ccc(F)cc2)CC1` (centres unmarked) [Compound 12, 2-[3-[4-(4-Fluoro-phenyl)-3,6-dihydro-2H-pyridinol-yl]-2-hydroxy-propoxy]-benzamide], the pKi is over 7.00.

The compound `NC(=O)Nc1ccccc1OCC(O)CN1CC=C(c2ccc(F)cc2)CC1` (centres unmarked) [Compound 13, [2-[3-[4-(4-Fluoro-phenyl)-3,6-dihydro-2H-pyridin-1-yl]-2-hydroxy-propoxy]-phenyl]-urea] had a pKi of over 7.00.

In the case of `CC(=O)Nc1ccccc1OCC(O)CN1CC=C(c2ccc(Cl)cc2)CC1` (centres unmarked) [Compound 14], the negative logarithm of the Ki (pKi) was over 7.00.
